The source of these data is patent publication US20170121344A1 (Siga Technologies, Inc., priority 2009, published 2017).

SMILES strings stand for the structures.

The first experiment relates to Dengue-2 (Strain New Guinea C). The experiment in a line: Viral yield assay against Dengue-2 in Vero cells. As to conditions: Dengue virus, Vero, 48 h, read-out: Activity (EC50 class) against Dengue-2 Virus in Vero cells. The experiment is classed as cell-based, Dengue virus. Summed up:
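Vero cells were infected with dengue virus at an MOI of 0.1, treated with compound or DMSO vehicle, and kept at 37° C. Supernatant virus was harvested 48 hours post infection and titered on Vero cells, with EC50 derived from yield reduction.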
Turning to `CC(C)Cc1ccc2c(N)c(C(=O)Nc3ccccc3)sc2n1` [Compound 206, 3-Amino-6-isobutyl-thieno[2,3-b]pyridine-2-carboxylic acid phenylamide], the 50% effective concentration (EC50) was > 25 µM.

`COCc1cc(C)nc2sc(C(=O)Nc3ccccc3C)c(N)c12` [Compound 210, 3-Amino-4-methoxymethyl-6-methyl-thieno[2,3-b]pyridine-2-carboxylic acid o-tolylamide]: the EC50 was > 25 µM.

Take `Cc1ccccc1NC(=O)c1sc2nc3c(c(-c4ccco4)c2c1N)CCCC3` [Compound 218, 3-Amino-4-furan-2-yl-5,6,7,8-tetrahydro-thieno[2,3-b]quinoline-2-carboxylic acid o-tolylamide]: the EC50 was > 25 µM.

On to `Nc1c(C(=O)Nc2nccs2)sc2nc3c(c(-c4cccs4)c12)CCCCC3` [Compound 223, 3-Amino-4-thiophen-2-yl-6,7,8,9-tetrahydro-5H-1-thia-10-aza-cyclohepta[f]indene-2-carboxylic acid thiazol-2-ylamide], for which the EC50 is > 25 µM.

For `NC(=O)c1sc2nc3c(c(-c4ccc(Cl)cc4)c2c1N)CCCC3` [Compound 224, 3-Amino-4-(4-chloro-phenyl)-5,6,7,8-tetrahydro-thieno[2,3-b]quinoline-2-carboxylic acid amide], the EC50 was > 25 µM.

For `Cc1nc2c(sc3nc4c(cc32)COC(C)(C)C4)c(=O)n1CCc1ccccc1` [Compound 230, 3,8,8-Trimethyl-2-phenethyl-8,9-dihydro-2H,6H-7-oxa-11-thia-2,4,10-triaza-benzo[b]fluoren-1-one], the EC50 is > 25 µM.

With `Cc1nc2c(sc3nc4c(cc32)COC(C)(C)C4)c(=O)n1CCN1CCOCC1` [Compound 231, 3,8,8-Trimethyl-2-(2-morpholin-4-yl-ethyl)-8,9-dihydro-2H,6H-7-oxa-11-thia-2,4,10-triaza-benzo[b]fluoren-1-one], the EC50 was > 25 µM.

On to `CC1(C)Cc2nc3sc4c(=O)[nH]cnc4c3cc2CS1` [Compound 232, 8,8-Dimethyl-8,9-dihydro-2H,6H-7,11-dithia-2,4,10-triaza-benzo[b]fluoren-1-one], for which the EC50 was > 25 µM.

Take `CCc1nc2c(sc3nc4c(cc32)COC(C)(C)C4)c(=O)n1Cc1ccco1` [Compound 235, 3-Ethyl-2-furan-2-ylmethyl-8,8-dimethyl-8,9-dihydro-2H,6H-7-oxa-11-thia-2,4,10-triaza-benzo[b]fluoren-1-one]: the EC50 was > 25 µM.

The experiment is the same for the next values; noted with them: Dengue virus; Vero cells, MOI 0.1, harvested 48 hours post infection; read-out: Activity (EC50 class) against Dengue-2 Virus in Vero cells.
Consider `Nc1c(C(=O)NCCc2ccccc2)sc2nc3c(cc12)CCCCC3` [Compound 205, 3-Amino-6,7,8,9-tetrahydro-5H-1-thia-10-aza-cyclohepta[f]indene-2-carboxylic acid phenethyl-amide], for which the EC50 is > 25 µM.

With `Nc1c(C(=O)N(c2ccccc2)c2ccccc2)sc2nc3c(cc12)CCC3` [Compound 207, 3-Amino-6,7-dihydro-5H-cyclopenta[b]thieno[3,2-e]pyridine-2-carboxylic acid diphenylamide], the EC50 is > 25 µM.

For `CCc1c2c(nc3sc(C(=O)N4CCOCC4)c(N)c13)CC(C)(C)CC2=O` [Compound 208, 3-Amino-4-ethyl-7,7-dimethyl-2-(morpholine-4-carbonyl)-7,8-dihydro-6H-thieno[2,3-b]quinolin-5-one], the EC50 is > 25 µM.

Turning to `COCc1cc(C)nc2sc(C(=O)NCc3ccco3)c(N)c12` [Compound 209, 3-Amino-4-methoxymethyl-6-methyl-thieno[2,3-b]pyridine-2-carboxylic acid (furan-2-ylmethyl)-amide], the EC50 is > 25 µM.

For the compound `COCc1cc(C)nc2sc(C(=O)Nc3cc(Cl)ccc3Cl)c(N)c12` [Compound 211, 3-Amino-4-methoxymethyl-6-methyl-thieno[2,3-b]pyridine-2-carboxylic acid (2,5-dichloro-phenyl)-amide], the EC50 is > 25 µM.

For the compound `Nc1c(C(=O)Nc2ccc([N+](=O)[O-])cc2)sc2nc3c(c(-c4ccco4)c12)CCC3` [Compound 212, 3-Amino-4-furan-2-yl-6,7-dihydro-5H-cyclopenta[b]thieno[3,2-e]pyridine-2-carboxylic acid (4-nitro-phenyl)-amide], the EC50 was > 25 µM.

`Nc1c(C(=O)Nc2ccc([N+](=O)[O-])cc2)sc2nc3c(c(-c4ccco4)c12)CCCC3` [Compound 213, 3-Amino-4-furan-2-yl-5,6,7,8-tetrahydro-thieno[2,3-b]quinoline-2-carboxylic acid (4-nitro-phenyl)-amide]: the EC50 is > 25 µM.

Regarding `CC1(C)CC(=O)c2cc3c(N)c(C(=O)Nc4ccc([N+](=O)[O-])cc4)sc3nc2C1` [Compound 214, 3-Amino-7,7-dimethyl-5-oxo-5,6,7,8-tetrahydro-thieno[2,3-b]quinoline-2-carboxylic acid (4-nitro-phenyl)-amide], the EC50 is > 25 µM.

For `Nc1c(C(=O)Nc2ccc([N+](=O)[O-])cc2)sc2nc3c(cc12)CCC3` [Compound 215, 3-Amino-6,7-dihydro-5H-cyclopenta[b]thieno[3,2-e]pyridine-2-carboxylic acid (4-nitro-phenyl)-amide], the concentration for a half-maximal effect (EC50) is > 25 µM.

Regarding `C=CCc1c(C)nc2sc(C(=O)Nc3ccc(Br)cc3)c(N)c2c1C` [Compound 216, 5-Allyl-3-amino-4,6-dimethyl-thieno[2,3-b]pyridine-2-carboxylic acid (4-bromo-phenyl)-amide], the EC50 was > 25 µM.

`Nc1c(C(=O)Nc2ccccc2)sc2nc3c(cc12)CCCCC3` [Compound 217, 3-Amino-6,7,8,9-tetrahydro-5H-1-thia-10-aza-cyclohepta[f]indene-2-carboxylic acid phenylamide]: the EC50 is > 25 µM.

Consider `CCc1ccccc1NC(=O)c1sc2nc3c(c(-c4ccco4)c2c1N)CCC3` [Compound 219, 3-Amino-4-furan-2-yl-6,7-dihydro-5H-cyclopenta[b]thieno[3,2-e]pyridine-2-carboxylic acid (2-ethyl-phenyl)-amide], for which the EC50 is > 25 µM.

For the compound `Cc1ccc(-c2c3c(nc4sc(C(N)=O)c(N)c24)CCCCC3)cc1` [Compound 220, 3-Amino-4-p-tolyl-6,7,8,9-tetrahydro-5H-1-thia-10-aza-cyclohepta[f]indene-2-carboxylic acid amide], the EC50 was > 25 µM.

`Nc1c(C(=O)Nc2ccc([N+](=O)[O-])cc2)sc2nc(-c3cccs3)cc(C(F)(F)F)c12` [Compound 221, 3-Amino-6-thiophen-2-yl-4-trifluoromethyl-thieno[2,3-b]pyridine-2-carboxylic acid (4-nitro-phenyl)-amide]: the EC50 is > 25 µM.

For `CC1(C)CC(=O)c2cc3c(N)c(C(=O)Nc4ccccc4[N+](=O)[O-])sc3nc2C1` [Compound 222, 3-Amino-7,7-dimethyl-5-oxo-5,6,7,8-tetrahydro-thieno[2,3-b]quinoline-2-carboxylic acid (2-nitro-phenyl)-amide], the half-maximal effective concentration (EC50) is > 25 µM.

On to `C=CCc1c(C)nc2sc(C(=O)Nc3ccc([N+](=O)[O-])cc3)c(N)c2c1C` [Compound 225, 5-Allyl-3-amino-4,6-dimethyl-thieno[2,3-b]pyridine-2-carboxylic acid (4-nitro-phenyl)-amide], for which the EC50 is > 25 µM.

`CC1(C)CC(=O)c2cc3c(N)c(C(=O)Nc4ccc5c(c4)OCO5)sc3nc2C1` [Compound 226, 3-Amino-7,7-dimethyl-5-oxo-5,6,7,8-tetrahydro-thieno[2,3-b]quinoline-2-carboxylic acid benzo[1,3]dioxol-5-ylamide]: the EC50 is > 25 µM.

With `Cc1ccc(-c2c3c(nc4sc(C(N)=O)c(N)c24)CCCC3)cc1` [Compound 227, 3-Amino-4-p-tolyl-5,6,7,8-tetrahydro-thieno[2,3-b]quinoline-2-carboxylic acid amide], the EC50 is > 25 µM.

On to `Nc1c(C(=O)Nc2ccc([N+](=O)[O-])cc2)sc2nc3c(cc12)CCCC3` [Compound 228, 3-Amino-5,6,7,8-tetrahydro-thieno[2,3-b]quinoline-2-carboxylic acid (4-nitro-phenyl)-amide], for which the EC50 is > 25 µM.

As to `COCc1cc(C)nc2sc(C(=O)Nc3ccc(C)c(Cl)c3)c(N)c12` [Compound 229, 3-Amino-4-methoxymethyl-6-methyl-thieno[2,3-b]pyridine-2-carboxylic acid (3-chloro-4-methyl-phenyl)-amide], the EC50 was > 25 µM.

As for `CC1(C)Cc2c(c(N3CCOCC3)nc3sc4c(=O)n(-c5ccccc5)cnc4c23)CO1` [Compound 233, 2,2-Dimethyl-5-morpholin-4-yl-9-phenyl-1,4-dihydro-2H,9H-3-oxa-7-thia-6,9,11-triaza-benzo[c]fluoren-8-one], the EC50 was > 25 µM.

As to `CC1(C)Cc2c(c(N3CCOCC3)nc3sc(C(=O)N4CCOCC4)c(N)c23)CO1` [Compound 234, (1-Amino-8,8-dimethyl-5-morpholin-4-yl-8,9-dihydro-6H-7-oxa-3-thia-4-aza-cyclopenta[a]naphthalen-2-yl)-morpholin-4-yl-methanone], the EC50 is > 25 µM.

Turning to `Cc1nc2c(sc3nc4c(cc32)COC(C)(C)C4)c(=O)n1CC1CCCO1` (stereo not shown) [Compound 236, 3,8,8-Trimethyl-2-(tetrahydro-furan-2-ylmethyl)-8,9-dihydro-2H,6H-7-oxa-11-thia-2,4,10-triaza-benzo[b]fluoren-1-one], the EC50 is > 25 µM.

In the case of `CCCCNC(=O)c1sc2nc3c(cc2c1NC(C)=O)COC(C)(C)C3` [Compound 237, 3-Acetylamino-7,7-dimethyl-7,8-dihydro-5H-pyrano[4,3-b]thieno[3,2-e]pyridine-2-carboxylic acid butylamide], the EC50 is > 25 µM.

In the case of `COc1ccc(-c2cc(-c3cccs3)nc3sc(C(N)=O)c(N)c23)cc1` [Compound 238, 3-Amino-4-(4-methoxy-phenyl)-6-thiophen-2-yl-thieno[2,3-b]pyridine-2-carboxylic acid amide], the EC50 was > 25 µM.
